{"source": "paper PMC7054359", "about": "“Effects of route of administration on oxytocin-induced changes in regional cerebral blood flow in humans” (Nature Communications, 2020)", "key": {"[1]": {"conditions": "cited from earlier work", "description": "Human studies almost exclusively target the central OT system by administering synthetic OT using nasal sprays, despite a lack of understanding of the mechanisms underpinning its pharmacodynamic effects. […] The intranasal administration of OT has been favoured under the assumption that once in the nasal cavity, OT can reach the brain directly, bypassing the BBB[13]. […] The first mechanism po ..."}, "[2]": {"conditions": "intraperitoneal administration, cited from earlier work", "description": "With respect to changes in rCBF induced by the intravenous administration of OT, there may be three possible mediating mechanisms. First, it is possible that peripheral effects of OT on vegetative territories, such as the heart, may be an indirect source of changes in areas of the interoceptive/allostasis network in the human brain, where the dorsal amygdala and the pregenual anterior cingulate cortex assume the role of visceromotor hubs[43]. […] The delivery to the paranasal sinuses seems to be increased about 3-5x by using the aerosol pulsation deposition method implemented by the PARI sinus nebuliser(6, 7). The paranasal sinus mucosa is also innervated by the trigeminal nerve which is one of the pathways propo ..."}, "[3]": {"experiment": "Plasma OT pharmacokinetics after intravenous, nasal spray or nebulizer administration (radioimmunoassay after extraction)", "assay_type": "in vivo, humans", "design": "Plasma OT Concentration, individual participants: unit not given here", "conditions": "for Plasma OT Concentration, individual participants: Condition IV (10 IU), source data of Fig. 6a; for Plasma OT Concentration, individual participants / Bioavailability, individual participants: unit not given; for Bioavailability, individual participants: source data of Fig. 6c, one row per participant; for AUC of plasmatic oxytocin post-dosing / Cmax: 40 IU OT; for AUC of plasmatic oxytocin post-dosing: trapezoidal rule, 120 min post-dosing; for Cmax: healthy men, plasma, radioimmunoassay, read-out: Cmax, maximum plasmatic concentration achieved after dosing", "description": "For the intranasal administrations, participants self-administered a nominal dose of 40 IU OT (Syntocinon; 40IU/ml; Novartis, Basel, Switzerland), one of the highest clinically applicable doses. We have shown that 40IU delivered with a standard nasal spray induce robust rCBF changes in the human brain in a between-subjects, single-blind design study. For the intranasal administration, we used specially manufactured placebo that contained the same excipients as Syntocinon except for oxytocin.\nThe aerosol droplet size of three Syntocinon spray bottles was assessed by laser diffraction (Malvern Spraytec, Malvern Panalytical, Worcestershire, UK). The mass median diameter (MMD) of the aerosol plume was 37 ± 2.5 µm.\nPARI SINUS nebulizer: Participants self-administered 40IU OT (Syntocinon) or placebo, by operating the SINUS nebulizer for 3 min in each nostril (6 min in total), according to instructions. The correct application of the device was confirmed by determining gravimetrically the administered volume. Participants were instructed to breathe using only their mouth and to keep a constant breath rate with their soft palate closed, to minimize delivery to the lungs. The PARI SINUS (PARI GmbH, Starnberg, Germany) is designed to deliver aerosolised drugs to the sinus cavities by ventilating the sinuses via pressure fluctuations. The SINUS nebulizer produces an aerosol with 3 µm MMD, which is superimposed with a 44 Hz pulsation frequency. […] The efficacy of this system was first shown in a scintigraphy study by ref. [76]. Since the entrance of the sinuses is located near the olfactory region, an improved delivery to the olfactory region was expected compared to nasal sprays. Other studies[32] have shown up to 9.0% (±1.9%) of the total administered dose to be delivered to the olfactory region, 15.7 (±2.4%) to the upper nose.\nFor the intravenous administration, we delivered 10IU OT (Syntocinon injection formulation, 10IU/ml, Alliance, UK) or saline via slow infusion over 10 min (1IU/min). A 50-ml syringe was loaded with either 32 ml of 0.9% sodium chloride (placebo) or 30 ml of 0.9% sodium chloride with […] of Syntocinon (10IU/ml). […] The ECG was monitored during the intravenous administration interval. We selected the intravenous dose and rate of administration to assure high plasmatic concentrations of OT throughout the observation period while restricting cardiovascular effects to tolerable and safe limits. A rate of 1IU per minute is typically used in caesarean sections and is considered to have minimised side effects[77],[78].\nWe collected plasma samples at baseline and at five timepoints post-dosing (as detailed in Fig. 1) to measure changes in the concentration of OT. Plasmatic OT was assayed by radioimmunoassay (RIAgnosis, Munich, Germany) after extraction, currently the gold-standard technique for OT quantifications in peripheral fluids. The detection limit of this assay is in the 0.5 pg/sample range. Cross-reactivity with vasopressin, ring moieties and terminal tripeptides of both OT and vasopressin and a wide variety of peptides comprising […] (alpha-melanocyte-stimulating hormone) up to 41 (corticotrophin-releasing factor) amino acids are <0.7% throughout. The intra- and inter-assay variabilities are <10%[80].\nPharmacokinetic analysis: From the plasmatic concentrations of OT at several timepoints after dosing we calculated the area under the curve (AUC) using the trapezoidal rule for each subject and session. AUC provides a single metric that reflects variations in plasma levels of OT concentration following OT/placebo administration for each session and each participant. […] Mean AUCs were compared between the three methods of administration with a repeated measures one-way analysis of variance, using the Greenhouse-Geisser correction against violations of sphericity. Post-hoc comparisons between methods were implemented using Tukey’s correction for multiple comparisons. […]"}, "[4]": {"conditions": "intravenous infusion of labelled synthetic OT; cited from earlier work", "description": "With respect to changes in rCBF induced by the intravenous administration of OT, there may be three possible mediating mechanisms. First, it is possible that peripheral effects of OT on vegetative territories, such as the heart, may be an indirect source of changes in areas of the interoceptive/allostasis network in the human brain, where the dorsal amygdala and the pregenual anterior cingulate cortex assume the role of visceromotor hubs[43]."}}, "note": "“And” between values parts separate entries of the source, which are not always exact repeats. Equal values may be shown once. Read-outs that look alike come from different tables or passages of the source."}
{"smiles": "CC[C@H](C)[C@@H]1NC(=O)[C@H](Cc2ccc(O)cc2)NC(=O)[C@@H](N)CSSC[C@@H](C(=O)N2CCC[C@H]2C(=O)N[C@@H](CC(C)C)C(=O)NCC(N)=O)NC(=O)[C@H](CC(N)=O)NC(=O)[C@H](CCC(N)=O)NC1=O", "note": "[OT, oxytocin]", "values": [{"measurement": "Crossing of the blood-brain barrier", "setting": "[1]", "value": "unable to cross the blood-brain barrier (BBB) in significant amounts"}, {"measurement": "OT concentration in brain extracellular fluid", "setting": "[2]; wild-type and OT knockout mice", "value": "increased the concentration of OT in the extracellular fluid in the amygdala and dorsal hippocampus"}, {"measurement": "Time the concentration in amygdala extracellular fluid remains elevated", "setting": "[2]; ref Smith et al. 2019", "value": "about 1 h"}, {"measurement": "Time to reach the extracellular fluid in the amygdala", "setting": "[2]; ref Smith et al. 2019", "value": "≤ 30", "unit": "min"}, {"measurement": "Plasma OT Concentration, individual participants", "setting": "[3]; Sample 2", "value": "65.12 and 59.67 and 47.11"}, {"measurement": "Plasma OT Concentration, individual participants", "setting": "[3]; Sample 3", "value": 68.1}, {"measurement": "Plasma OT Concentration, individual participants", "setting": "[3]; Sample 4", "value": "30.93 and 53.9"}, {"measurement": "Plasma OT Concentration, individual participants", "setting": "[3]; Sample 6", "value": "12.86 and 20.71"}, {"measurement": "Plasma OT Concentration, individual participants", "setting": "[3]; Sample 7", "value": "7.3 and 7.23 and 4.61"}, {"measurement": "Plasma OT Concentration, individual participants", "setting": "[3]; Sample 8", "value": 3.77}, {"measurement": "Time of peak plasma concentration", "setting": "[3]; Intravenous, 10 IU", "value": "at the end of dosing"}, {"measurement": "Time of peak plasma concentration", "setting": "[3]; Nasal spray, 40 IU", "value": "at the end of dosing"}, {"measurement": "Bioavailability, individual participants", "setting": "[3]; Nebuliser 40 IU", "value": "31.90 and 10.30 and 3.30 and 7.94 and 12.67 and 62.94 and 5.39 and 6.53 and 8.236 and 4.17 and 6.07 and 5.20 and 6.82 and 10.22 and 6.95 and 32.80"}, {"measurement": "AUC of plasmatic oxytocin post-dosing", "setting": "[3]; PARI SINUS nebulizer, mean (1 SEM)", "value": "15.30 (2.14) pg.ml-1.h-1"}, {"measurement": "Bioavailability, individual participants", "setting": "[3]; Spray 40 IU", "value": "6.85 and 11.96 and 5.38 and 16.81 and 5.32 and 6.16 and 8.93 and 4.67 and 8.4323 and 12.50 and 14.77 and 6.29 and 7.56 and 11.34 and 5.36 and 37.05"}, {"measurement": "AUC of plasmatic oxytocin post-dosing", "setting": "[3]; Standard nasal spray, mean (1 SEM)", "value": "15.70 (1.97) pg.ml-1.h-1"}, {"measurement": "Cmax", "setting": "[3]; human, in vivo, inhaled or intranasal, 40 IU, PARI SINUS nebulizer, mean (1 SEM)", "value": 0.0163, "unit": "ng/mL"}, {"measurement": "Cmax", "setting": "[3]; human, in vivo, inhaled or intranasal, 40 IU, Standard nasal spray, mean (1 SEM)", "value": 0.0158, "unit": "ng/mL"}, {"measurement": "Tmax", "setting": "[3]; human, in vivo, inhaled or intranasal, Nebulizer, 40 IU, post-dosing, read-out: Time of peak plasma concentration (converted)", "value": "~15", "unit": "min"}, {"measurement": "bioavailability", "setting": "[3]; human, in vivo, inhaled or intranasal, Standard nasal spray 40 IU, dose-corrected AUC intranasal / dose-corrected AUC intravenous, mean (1 SEM), read-out: Absolute bioavailability of oxytocin absorbed to the plasma", "value": 10.6, "unit": "%"}, {"measurement": "Synthetic OT levels in the CSF", "setting": "[4]", "value": "increased synthetic OT levels in the CSF"}]}
